Assays:
[1] = test system: rats with SCW-induced arthritis; test: Efficacy in rats with SCW-induced arthritis (ankle thickness, clinical score); assay type: in vivo, rat
Protocol: To induce arthritis, Female Lewis (LEW/N) rats, 5-6 weeks of age (80-100 g) were injected (i.p.) with SCW PG-PS as described above. Eighteen days later, arthritis was well established. Calipers were used to measure the width (anterior to posterior surface) of the left and right hind ankles of each rat. Each ankle was measured 3 times and averaged, and treatment groups were randomized based on ankle thickness (Table 7). Commencing on day 18, randomized groups of arthritic rats (n=5 rats/group) received vehicle or 5, 20, or 50 mg/kg Compound α BID by oral gavage. Vehicle consisted of an aqueous mixture containing 2% (v:v) N-methylpyrrolidone, 5% (v:v) glycerine, and 20% (w:v) captisol. Treatment continued daily through the morning of day 26.
By day 18 mean ankle thickness was increased an average of >4.4 mm compared to disease free rats. Rats treated with vehicle alone continued to gradually develop a more severe arthritis based on ankle thickness measurements over the eight-day treatment period (Table 7). […] By day 26, the disease associated increase in ankle thickness had been reduced 27, 37, and 46 percent by 5, 20, and 50 mg/kg Compound α, respectively.
Hind paw inflammation clinical scores were assigned based on swelling and erythema.

MMP9 = molecular target: T1, MMP9 (Rattus norvegicus, UniProt P50282); test: Western blot of MMP9 forms in ankles of rats with SCW-induced arthritis; assay type: in vivo; settings: day 26, mAb-L51/82
T1 construct: Pro and active MMP9 were abundantly present in ankles of SCW-induced vehicle-treated rats; from tissue; host or cells: tibia-tarsus joints (ankles) of female Lewis rats
T1 sequence (P50282 108-708): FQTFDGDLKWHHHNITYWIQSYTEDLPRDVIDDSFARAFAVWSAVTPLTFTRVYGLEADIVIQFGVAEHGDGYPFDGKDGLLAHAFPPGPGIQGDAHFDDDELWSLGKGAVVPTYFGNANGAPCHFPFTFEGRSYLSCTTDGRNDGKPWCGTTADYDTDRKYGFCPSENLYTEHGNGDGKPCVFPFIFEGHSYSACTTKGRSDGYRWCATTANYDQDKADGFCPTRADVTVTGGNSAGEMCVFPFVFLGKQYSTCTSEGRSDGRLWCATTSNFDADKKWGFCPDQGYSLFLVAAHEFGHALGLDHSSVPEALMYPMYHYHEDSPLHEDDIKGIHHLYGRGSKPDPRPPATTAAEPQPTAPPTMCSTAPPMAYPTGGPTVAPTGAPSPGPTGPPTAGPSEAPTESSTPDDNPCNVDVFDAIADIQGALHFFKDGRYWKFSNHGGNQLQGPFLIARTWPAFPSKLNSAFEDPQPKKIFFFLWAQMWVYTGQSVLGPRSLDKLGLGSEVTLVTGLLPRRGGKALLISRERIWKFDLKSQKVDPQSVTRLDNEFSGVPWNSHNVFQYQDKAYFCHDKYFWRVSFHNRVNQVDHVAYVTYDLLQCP
Protocol: Hind-limbs were skinned, severed just above the tibia-tarsus joint and below the metatarsals, and the tibia-tarsus joints (ankles) were weighed, snap frozen and pulverized on dry ice using a hammer and anvil. The pulverized tissue was suspended in 3 volumes (w:v) of ice-cold homogenization buffer containing 50 mM Tris pH 7.5, 150 mM NaCl, 5 mM EDTA, 1% Triton×100, 0.05% Brij 30, 10% dimethylsulfoxide and Complete EDTA-free Protease Inhibitor Cocktail (Roche Diagnostics). The suspended tissue was homogenized sequentially with a Kinematica AG Polytron and a Dounce homogenizer. Homogenates were centrifuged at 16,000×g for 10 min at 4° C. and the soluble fractions were saved. Dimethylsulfoxide was removed from a portion of each soluble fraction using PD MiniTrap™ G-25 desalting columns (GE Healthcare). Homogenates (0.25 mL), free of DMSO, were diluted with an equal volume of binding buffer (i.e., homogenization buffer without dimethylsufoxide) and adjusted to contain 50 μL of a 50% slurry of gelatin-conjugated sepharose. Following 2 hours of rotation at 4° C. the beads were washed twice in binding buffer and eluted in 100 μL 2×-reducing Laemmli buffer with heating to 95° C. for 5 minutes. […]

Structure (SMILES): Cc1nc(C)c(-c2csc(Nc3cc(S(N)(=O)=O)ccc3OC(C)C)n2)s1 [Compound α, 3-(2′,4′-Dimethyl-[4,5′]bithiazolyl-2-ylamino)-4-isopropoxy-benzenesulfonamide.HBr]
- Day 26 % Inh of disease associated increase in ankle thickness ([1]; 5 mg/kg BID oral): 27%
- Day 26 % Inh of disease associated increase in ankle thickness ([1]; 20 mg/kg BID oral): 37%
- Day 26 % Inh of disease associated increase in ankle thickness ([1]; 50 mg/kg BID oral): 46%
- abundance of proMMP9 in ankles (MMP9): did not reduce

From patent US20120302573A1, “METHODS OF INHIBITING PRO MATRIX METALLOPROTEINASE ACTIVATION” (priority 2011, published 2012)
